According to PubChem BioAssay (NCI):
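Method: 48-hour compound exposure of cells in 96-well plates, five concentrations, linear interpolation of endpoints. TGI: concentration producing complete growth inhibition.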

What was measured:
Assay in all cases: NCI-60 cell line screen, 48 h
786-0 renal = system: 786-0 renal
A498 renal = system: A498 renal
A549 NSCLC = system: A549 NSCLC
ACHN renal = system: ACHN renal
BT-549 breast = system: BT-549 breast
CAKI-1 renal = system: CAKI-1 renal
CCRF-CEM leukemia = system: CCRF-CEM leukemia
COLO 205 colon = system: COLO 205 colon
DU-145 prostate = system: DU-145 prostate
EKVX NSCLC = system: EKVX NSCLC
HCC-2998 colon = system: HCC-2998 colon
HCT-116 colon = system: HCT-116 colon
HCT-15 colon = system: HCT-15 colon
HL-60(TB) leukemia = system: HL-60(TB) leukemia
HOP-62 NSCLC = system: HOP-62 NSCLC
HOP-92 NSCLC = system: HOP-92 NSCLC
HS 578T breast = system: HS 578T breast
HT29 colon = system: HT29 colon
IGROV1 ovarian = system: IGROV1 ovarian
K-562 leukemia = system: K-562 leukemia
KM12 colon = system: KM12 colon
LOX IMVI melanoma = system: LOX IMVI melanoma
M14 melanoma = system: M14 melanoma
MALME-3M melanoma = system: MALME-3M melanoma
MCF7 breast = system: MCF7 breast
MDA-MB-231 breast = system: MDA-MB-231 breast
MDA-MB-435 = system: MDA-MB-435
MDA-N = system: MDA-N
MOLT-4 leukemia = system: MOLT-4 leukemia
NCI-H226 lung = system: NCI-H226 lung
NCI-H23 lung = system: NCI-H23 lung
NCI-H460 lung = system: NCI-H460 lung
NCI-H522 lung = system: NCI-H522 lung
NCI/ADR-RES ovarian = system: NCI/ADR-RES ovarian
OVCAR-3 ovarian = system: OVCAR-3 ovarian
OVCAR-4 ovarian = system: OVCAR-4 ovarian
OVCAR-5 ovarian = system: OVCAR-5 ovarian
OVCAR-8 ovarian = system: OVCAR-8 ovarian
PC-3 prostate = system: PC-3 prostate
RPMI-8226 leukemia = system: RPMI-8226 leukemia
RXF 393 renal = system: RXF 393 renal
SF-268 CNS = system: SF-268 CNS
SF-295 CNS = system: SF-295 CNS
SF-539 CNS = system: SF-539 CNS
SK-MEL-2 melanoma = system: SK-MEL-2 melanoma
SK-MEL-28 melanoma = system: SK-MEL-28 melanoma
SK-MEL-5 melanoma = system: SK-MEL-5 melanoma
SK-OV-3 ovarian = system: SK-OV-3 ovarian
SN12C renal = system: SN12C renal
SNB-19 CNS = system: SNB-19 CNS
SNB-75 CNS = system: SNB-75 CNS
SR leukemia = system: SR leukemia
SW-620 colon = system: SW-620 colon
T-47D breast = system: T-47D breast
TK-10 renal = system: TK-10 renal
U251 CNS = system: U251 CNS
UACC-257 melanoma = system: UACC-257 melanoma
UACC-62 melanoma = system: UACC-62 melanoma
UO-31 renal = system: UO-31 renal

Measured: TGI

Cc1[nH]c2ccccc2c1-c1cc(-c2cc(-c3c(C)[nH]c4ccccc34)on2)no1
66.8 µM: SNB-75 CNS
96.7 µM: SR leukemia
48.3 µM: MDA-N
90.6 µM: HS 578T breast
80.6 µM: MDA-MB-435
> 100 µM: all other assays above

NCCCNCCCCNCCCN
1.59 µM: RPMI-8226 leukemia
9.22 µM: ACHN renal
> 91.6 µM: NCI/ADR-RES ovarian
> 76.7 µM: HCC-2998 colon
2.79 µM: 786-0 renal
> 20.1 µM: OVCAR-3 ovarian
11.6 µM: CAKI-1 renal
41.5 µM: MDA-N
28.3 µM: RXF 393 renal
17.5 µM: MOLT-4 leukemia
> 60.8 µM: MDA-MB-231 breast
8.78 µM: HCT-116 colon
5.91 µM: T-47D breast
15.4 µM: SN12C renal
15.2 µM: HL-60(TB) leukemia
23.2 µM: DU-145 prostate
> 63.7 µM: U251 CNS
5.02 µM: UO-31 renal
18.9 µM: TK-10 renal
7.63 µM: HCT-15 colon
14 µM: SW-620 colon
> 68.2 µM: MDA-MB-435
> 24.5 µM: BT-549 breast
> 92.9 µM: SF-268 CNS
> 36.8 µM: SR leukemia
3.41 µM: HOP-92 NSCLC
34.3 µM: SF-539 CNS
> 21.2 µM: K-562 leukemia
13.1 µM: MCF7 breast
> 21.8 µM: OVCAR-4 ovarian
76.5 µM: HT29 colon
5.72 µM: CCRF-CEM leukemia
> 53.9 µM: SK-OV-3 ovarian
30.5 µM: LOX IMVI melanoma
29.4 µM: M14 melanoma
33.8 µM: IGROV1 ovarian
11.8 µM: COLO 205 colon
0.879 µM: NCI-H522 lung
98 µM: HS 578T breast
38.6 µM: EKVX NSCLC
not listed: SK-MEL-28 melanoma
> 100 µM: all other assays above

Cc1ccc(-c2c3c(n(C4OC(CO)C(O)C(O)C4O)c(=S)c2C#N)CC(C)(C)CC3=O)cc1 (stereo not drawn)
not listed: COLO 205 colon | EKVX NSCLC | SK-OV-3 ovarian
> 100 µM: all other assays above

O=C(CCc1cc(O)cc(O)c1)NCCc1cc(O)cc(O)c1
not listed: CCRF-CEM leukemia | HL-60(TB) leukemia | MALME-3M melanoma | OVCAR-4 ovarian
> 100 µM: all other assays above
